For orientation: IC50 means the concentration that gives 50% inhibition.

This note sets out measurements from patent publication US6465505B1, “Benzyl-substituted benzimidazoles” (AstraZeneca AB, priority 1996, dated 2002).

The subject of this experiment is acid secretion in isolated rabbit gastric glands. Put plainly: Acid secretion inhibition in isolated rabbit gastric glands. It counts as cell-based. As to conditions: Oryctolagus cuniculus, in vitro, read-out: IC50, inhibiting effect on acid secretion in vitro. As for the experimental part:
Acid Secretion Inhibition in Isolated Rabbit Gastric Glands
Inhibiting effect on acid secretion in vitro in isolated rabbit gastric glands was measured as described by Berglindh et al. (1976) Acta Physiol. Scand. 97, 401-414.

Structures are written as SMILES.

With `Cc1nc2c(NCc3ccccc3)cccc2[nH]1` [Compound (A), 4-benzylamino-2-methylbenzimidazole], the IC50 was found to be 12.9 µM.
With `Cc1nc2c(OCc3ccccc3)cccc2[nH]1` [Compound (B), 4-benzyloxy-2-methyl benzimidazole], the IC50 stood at 7.8 µM.
